For this assay, the target named is T1, F508del (Homo sapiens, UniProt P13569, DEL508-508).
T1 construct: expressed in transfected cells
Nature of the assay: Protocol 1: membrane potential optical assay (FLIPR III, voltage sensing dye), identification of potentiator compounds. Type of assay: cell-based. As to conditions: Table 3, compounds of Table 1. In outline:
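NIH 3T3 fibroblasts stably expressing F508del were cultured at 27° C for 24 hrs for temperature correction, then treated with compounds or DMSO and loaded with a voltage-sensing redistribution dye. Forskolin added with a Cl⁻ gradient activated the channel; membrane-potential fluorescence on FLIPR III reported increased gating.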

Molecules are shown by their SMILES.

T1 sequence (P13569 with tags, fused parts or gaps DEL508-508): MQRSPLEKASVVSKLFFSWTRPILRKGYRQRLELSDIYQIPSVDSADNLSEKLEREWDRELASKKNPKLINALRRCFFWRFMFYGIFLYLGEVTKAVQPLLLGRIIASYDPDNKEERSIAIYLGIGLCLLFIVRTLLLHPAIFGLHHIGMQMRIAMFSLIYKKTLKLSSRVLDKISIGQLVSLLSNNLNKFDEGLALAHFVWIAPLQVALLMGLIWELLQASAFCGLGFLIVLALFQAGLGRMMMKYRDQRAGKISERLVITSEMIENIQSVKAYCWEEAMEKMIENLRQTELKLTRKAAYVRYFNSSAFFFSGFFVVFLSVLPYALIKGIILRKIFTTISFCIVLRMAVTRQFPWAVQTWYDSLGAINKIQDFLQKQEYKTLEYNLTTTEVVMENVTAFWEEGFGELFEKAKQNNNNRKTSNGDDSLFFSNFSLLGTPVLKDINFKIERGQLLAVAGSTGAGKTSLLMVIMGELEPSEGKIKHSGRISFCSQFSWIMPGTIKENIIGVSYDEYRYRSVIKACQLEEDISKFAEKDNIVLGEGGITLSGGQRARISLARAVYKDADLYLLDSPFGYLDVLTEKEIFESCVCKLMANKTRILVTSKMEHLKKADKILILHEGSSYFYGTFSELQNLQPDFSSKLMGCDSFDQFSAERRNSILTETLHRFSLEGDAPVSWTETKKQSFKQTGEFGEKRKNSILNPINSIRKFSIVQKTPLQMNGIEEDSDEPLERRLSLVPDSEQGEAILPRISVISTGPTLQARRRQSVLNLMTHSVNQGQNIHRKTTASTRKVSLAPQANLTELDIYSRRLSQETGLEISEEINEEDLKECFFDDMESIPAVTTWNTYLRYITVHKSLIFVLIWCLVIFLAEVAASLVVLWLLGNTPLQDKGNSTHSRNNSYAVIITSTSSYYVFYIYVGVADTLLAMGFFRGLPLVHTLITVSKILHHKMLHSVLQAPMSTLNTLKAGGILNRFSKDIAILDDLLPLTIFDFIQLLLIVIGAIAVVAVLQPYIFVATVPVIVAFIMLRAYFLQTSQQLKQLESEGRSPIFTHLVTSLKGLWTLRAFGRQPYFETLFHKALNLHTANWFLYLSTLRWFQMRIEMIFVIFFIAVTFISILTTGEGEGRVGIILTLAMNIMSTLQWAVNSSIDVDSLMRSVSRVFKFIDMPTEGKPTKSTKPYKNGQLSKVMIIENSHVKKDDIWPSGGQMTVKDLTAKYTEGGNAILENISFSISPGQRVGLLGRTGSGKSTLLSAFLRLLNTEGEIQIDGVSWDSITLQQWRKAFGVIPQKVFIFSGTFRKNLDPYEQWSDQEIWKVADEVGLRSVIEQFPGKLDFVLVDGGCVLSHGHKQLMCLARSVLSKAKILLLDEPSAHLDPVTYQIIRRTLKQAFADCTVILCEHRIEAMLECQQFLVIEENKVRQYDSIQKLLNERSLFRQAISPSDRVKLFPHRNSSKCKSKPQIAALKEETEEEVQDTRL

Turning to `Cc1ccc(-c2ccc(C(=O)NS(=O)(=O)c3cccc(N)n3)c(Oc3c(C)cc(C)cc3C)n2)cc1` [Compound 1035, N-[(6-amino-2-pyridyl)sulfonyl]-6-(p-tolyl)-2-(2,4,6-trimethylphenoxy)pyridine-3-carboxamide], the EC30 result is recorded as “+++ (“+++” means <3 uM)”.
To `CC(C)COc1cc(F)cc(-c2ccc(C(=O)NS(=O)(=O)c3cccc(N)n3)c(OCCCc3ccccn3)n2)c1` [Compound 1693, N-[(6-amino-2-pyridyl)sulfonyl]-6-(3-fluoro-5-isobutoxy-phenyl)-2-[3-(2-pyridyl)propoxy]pyridine-3-carboxamide] belongs “+++ (“+++” means <3 uM)”; to `CC(=O)c1cccc(Nc2cccc(S(=O)(=O)NC(=O)c3cccnc3N3CC(C)CC3(C)C)n2)c1` (stereo not drawn) [Compound 1949, N—[[6-(3-acetylanilino)-2-pyridyl]sulfonyl]-2-(2,2,4-trimethylpyrrolidin-1-yl)pyridine-3-carboxamide], “+++ (“+++” means <3 uM)”.
Regarding `Cc1cc(C)c(Oc2nc(-c3cc(C)nn3C)ccc2C(=O)NS(=O)(=O)c2cccc(N)n2)c(C)c1` [Compound 938, N-[(6-amino-2-pyridyl)sulfonyl]-6-(2,5-dimethylpyrazol-3-yl)-2-(2,4,6-trimethylphenoxy)pyridine-3-carboxamide], the EC30 entry is “++ (“++” means between 3 uM and 10 uM)”.
With `COCC1CCCN(c2nc(-c3ccc(OC(C)C)nc3)ccc2C(=O)NS(=O)(=O)c2cccc(N)n2)C1` (stereo not drawn) [Compound 1116, N-[(6-amino-2-pyridyl)sulfonyl]-6-(6-isopropoxy-3-pyridyl)-2-[3-(methoxymethyl)-1-piperidyl]pyridine-3-carboxamide], the EC30 entry is “++ (“++” means between 3 uM and 10 uM)”.
With `C[C@@H]1CN(c2nc(-c3ccccc3Cl)ccc2C(=O)NS(=O)(=O)c2ccc[nH]c2=O)C(C)(C)C1` [Compound 1784, 6-(2-chlorophenyl)-N-[(2-oxo-1H-pyridin-3-yl)sulfonyl]-2-[(4S)-2,2,4-trimethylpyrrolidin-1-yl]pyridine-3-carboxamide] the entry was “+++ (“+++” means <3 uM)”; with `CC(C)COc1cc(F)cc(-c2ccc(C(=O)NS(=O)(=O)c3cccc(N)n3)c(N3CCCC4CCCC43)n2)c1` (stereo not drawn) [Compound 1313, 2-(2,3,4,4a,5,6,7,7a-octahydrocyclopenta[b]pyridin-1-yl)-N-[(6-amino-2-pyridyl)sulfonyl]-6-(3-fluoro-5-isobutoxy-phenyl)pyridine-3-carboxamide], “+++ (“+++” means <3 uM)”.
With `CCOc1cccc2c1CN(Cc1c(C)cc(C)cc1C)C2(C)C(=O)NS(=O)(=O)c1ccccc1` (stereo not drawn) [Compound 1539, N-(benzenesulfonyl)-4-ethoxy-1-methyl-2-[(2,4,6-trimethylphenyl)methyl]isoindoline-1-carboxamide] the entry was “+++ (“+++” means <3 uM)”.
To `CC(C)COc1cc(F)cc(-c2ccc(C(=O)NS(=O)(=O)c3cccc(N)n3)c(OCCC3CCCC3)n2)c1` [Compound 1440, N-[(6-amino-2-pyridyl)sulfonyl]-2-(2-cyclopentylethoxy)-6-(3-fluoro-5-isobutoxy-phenyl)pyridine-3-carboxamide] belongs “+++ (“+++” means <3 uM)”; to `CCOc1cc(F)cc(-c2ccc(C(=O)NS(=O)(=O)c3cccc(N)n3)c(Oc3c(C)cc(C)cc3C)n2)c1` [Compound 1255, N-[(6-amino-2-pyridyl)sulfonyl]-6-(3-ethoxy-5-fluoro-phenyl)-2-(2,4,6-trimethylphenoxy)pyridine-3-carboxamide], “+++ (“+++” means <3 uM)”; to `CC1CN(c2ncccc2C(=O)NS(=O)(=O)c2cccc(N3CCC(c4ccccc4)C3)n2)C(C)(C)C1` (stereo not drawn) [Compound 1708, N—[[6-(3-phenylpyrrolidin-1-yl)-2-pyridyl]sulfonyl]-2-(2,2,4-trimethylpyrrolidin-1-yl)pyridine-3-carboxamide], “+++ (“+++” means <3 uM)”.
`Cc1ccc(-c2ccc(C(=O)NS(=O)(=O)c3cccc(N)n3)c(NCC3(C)CCOCC3)n2)cc1` [Compound 1196, N-[(6-amino-2-pyridyl)sulfonyl]-2-[(4-methyltetrahydropyran-4-yl)methylamino]-6-(p-tolyl)pyridine-3-carboxamide]: the EC30 result is “++ (“++” means between 3 uM and 10 uM)”.
With `COc1ncccc1S(=O)(=O)NC(=O)c1cc2ccc(C)cc2nc1N1C[C@@H](C)CC1(C)C` [Compound 1859, N-[(2-methoxy-3-pyridyl)sulfonyl]-7-methyl-2-[(4S)-2,2,4-trimethylpyrrolidin-1-yl]quinoline-3-carboxamide] the entry was “+++ (“+++” means <3 uM)”; with `CC1CN(c2nc(C(C)(C)C)c(C3=CCCCC3)cc2C(=O)NS(=O)(=O)c2cccc(N)n2)C(C)(C)C1` (stereo not drawn) [Compound 1601, N-[(6-amino-2-pyridyl)sulfonyl]-6-tert-butyl-5-(cyclohexen-1-yl)-2-(2,2,4-trimethylpyrrolidin-1-yl)pyridine-3-carboxamide], “+++ (“+++” means <3 uM)”.
On to `COc1ccccc1S(=O)(=O)NC(=O)c1cc(C(C)(C)C)nn1Cc1c(C)cccc1C` [Compound 1551, 5-tert-butyl-2-[(2,6-dimethylphenyl)methyl]-N-(2-methoxyphenyl)sulfonyl-pyrazole-3-carboxamide], for which the EC30 result is “+++ (“+++” means <3 uM)”.
In the case of `Cc1cc(C)c(Oc2nc(C)ccc2C(=O)NS(=O)(=O)c2cccc(NCCCN)n2)c(C)c1` [Compound 982, N-[[6-(3-aminopropylamino)-2-pyridyl]sulfonyl]-6-methyl-2-(2,4,6-trimethylphenoxy)pyridine-3-carboxamide], the EC30 result was “++ (“++” means between 3 uM and 10 uM)”.
As to `Cc1ccc(-c2ccc(C(=O)NS(=O)(=O)c3nccnc3N)c(N3CCC(C)CC3)n2)cc1` [Compound 1084, N-(3-aminopyrazin-2-yl)sulfonyl-2-(4-methyl-1-piperidyl)-6-(p-tolyl)pyridine-3-carboxamide], the EC30 entry is “++ (“++” means between 3 uM and 10 uM)”.
For `CC1CN(c2ncccc2C(=O)NS(=O)(=O)c2cccc(NCc3ccccc3Cl)n2)C(C)(C)C1` (stereo not drawn) [Compound 1983, N—[[6-[(2-chlorophenyl)methylamino]-2-pyridyl]sulfonyl]-2-(2,2,4-trimethylpyrrolidin-1-yl)pyridine-3-carboxamide], the EC30 result is “+++ (“+++” means <3 uM)”.
With `C[C@@H]1CN(c2nc(C3=CC(C)(C)CCC3=O)ccc2C(=O)NS(=O)(=O)c2cccc(N)n2)C(C)(C)C1` [Compound 1462, N-[(6-amino-2-pyridyl)sulfonyl]-6-(3,3-dimethyl-6-oxo-cyclohexen-1-yl)-2-[(4S)-2,2,4-trimethylpyrrolidin-1-yl]pyridine-3-carboxamide] the entry was “+++ (“+++” means <3 uM)”; with `CC(C)COc1cccc(-c2ccc(C(=O)NS(=O)(=O)c3cccc(N)n3)c(N3[C@H](C)CC[C@@H]3C)n2)c1` [Compound 957, N-[(6-amino-2-pyridyl)sulfonyl]-2-[(2S,5R)-2,5-dimethylpyrrolidin-1-yl]-6-(3-isobutoxyphenyl)pyridine-3-carboxamide], “+++ (“+++” means <3 uM)”; with `COc1cccc(S(=O)(=O)NC(=O)c2ccc(-c3cc(F)cc(OCC(C)C)c3)nc2N2C[C@@H](C)CC2(C)C)n1` [Compound 1483, 6-(3-fluoro-5-isobutoxy-phenyl)-N-[(6-methoxy-2-pyridyl)sulfonyl]-2-[(4S)-2,2,4-trimethylpyrrolidin-1-yl]pyridine-3-carboxamide], “+++ (“+++” means <3 uM)”.

(Values after patent US10758534B2 (Vertex Pharmaceuticals Incorporated, priority 2014, dated 2020).)
